Inconclusive results and toxic doses are left out. Rule for the calls: active = survival T/C of 150% or more; inactive = T/C below 125% in these data.
Test system: P388 leukemia ip, CD2F1 mice, survival T/C
Assay: NCI In Vivo Anticancer Drug Screen. Data for tumor model P388 Leukemia (intraperitoneal) in CD2F1 (CDF1) mice
Conditions: endpoint: median survival time, higher = longer survival
Procedure, shortened: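 Mice carrying the transplanted tumor received test compound or vehicle. Survival was recorded in each group, and the value is the treated-group measurement divided by that of the vehicle-treated control group.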

[1] = dose: 12.5 mg/kg/injection, schedule: Q01DX009 (ip), vehicle: Klucel (hydroxypropylcellulose) (HPC)
[2] = dose: 25.0 mg/kg/injection, schedule: Q01DX009 (ip), vehicle: Klucel (hydroxypropylcellulose) (HPC)

Measured: T/C

C=CCC(C(=O)OCCN(CC)CC)(c1ccccc1)c1ccccc1
inactive: dose: 0.75 mg/kg/injection, schedule: Q01DX009 (ip), vehicle: saline 100 % of control | dose: 1.5 mg/kg/injection, schedule: Q01DX009 (ip), vehicle: saline 94 % of control | dose: 3.0 mg/kg/injection, schedule: Q01DX009 (ip), vehicle: saline 100 % of control | dose: 6.0 mg/kg/injection, schedule: Q01DX009 (ip), vehicle: saline 103 % of control | dose: 12.0 mg/kg/injection, schedule: Q01DX009 (ip), vehicle: saline 100 % of control

O=C1NNC(=O)C1C(=O)Nc1ccccc1
inactive: dose: 0.93 mg/kg/injection, schedule: Q01DX005 (ip), vehicle: Klucel (hydroxypropylcellulose) (HPC) 100 % of control | dose: 1.87 mg/kg/injection, schedule: Q01DX005 (ip), vehicle: Klucel (hydroxypropylcellulose) (HPC) 103 % of control | dose: 3.75 mg/kg/injection, schedule: Q01DX005 (ip), vehicle: Klucel (hydroxypropylcellulose) (HPC) 100 % of control | dose: 15.0 mg/kg/injection, schedule: Q01DX005 (ip), vehicle: Klucel (hydroxypropylcellulose) (HPC) 113 % of control

Cc1cc2[nH]c3c(C#N)c(O)c(C(C)C)c(=O)n3c2cc1C
inactive: dose: 60.0 mg/kg/injection, schedule: Q01DX005 (ip), vehicle: saline with Tween-80 103 % of control | dose: 120.0 mg/kg/injection, schedule: Q01DX005 (ip), vehicle: saline with Tween-80 100 % of control | dose: 240.0 mg/kg/injection, schedule: Q01DX005 (ip), vehicle: saline with Tween-80 94 % of control

O=C(O)CC(=O)N=c1snc(Nc2ccccc2)n1-c1ccccc1
inactive: dose: 6.25 mg/kg/injection, schedule: Q01DX009 (ip), vehicle: Klucel (hydroxypropylcellulose) (HPC) 101 % of control | [1] 102 % of control | [2] 99 % of control

CC#CC#C/C=C1/C=CC2(CCCCO2)O1 (stereo not given)
inactive: [1] 100 % of control | [2] 101 % of control | dose: 50.0 mg/kg/injection, schedule: Q01DX009 (ip), vehicle: Klucel (hydroxypropylcellulose) (HPC) 107 % of control | dose: 100.0 mg/kg/injection, schedule: Q01DX009 (ip), vehicle: Klucel (hydroxypropylcellulose) (HPC) 104 % of control

Cc1cc2c3c(c1)C(C(F)(F)F)(C(F)(F)F)OI3OC2(C(F)(F)F)C(F)(F)F
inactive: dose: 25.0 mg/kg/injection, schedule: Q01DX005 (ip), vehicle: Klucel (hydroxypropylcellulose) (HPC) 95 % of control | dose: 50.0 mg/kg/injection, schedule: Q01DX005 (ip), vehicle: Klucel (hydroxypropylcellulose) (HPC) 95 % of control | dose: 100.0 mg/kg/injection, schedule: Q01DX005 (ip), vehicle: Klucel (hydroxypropylcellulose) (HPC) 96 % of control | dose: 200.0 mg/kg/injection, schedule: Q01DX005 (ip), vehicle: Klucel (hydroxypropylcellulose) (HPC) 97 % of control

CSC1SC(C#N)=C(N)C1[n+]1ccccc1 (stereo not given)
inactive: dose: 25.0 mg/kg/injection, schedule: Q04DX002 (ip), vehicle: saline with Tween-80 105 % of control | dose: 50.0 mg/kg/injection, schedule: Q04DX002 (ip), vehicle: saline with Tween-80 105 % of control | dose: 100.0 mg/kg/injection, schedule: Q04DX002 (ip), vehicle: saline with Tween-80 104 % of control

CNS(=O)(=O)c1c([O-])on[n+]1-c1ccccc1
inactive: dose: 60.0 mg/kg/injection, schedule: Q01DX005 (ip), vehicle: Klucel (hydroxypropylcellulose) (HPC) 99 % of control | dose: 120.0 mg/kg/injection, schedule: Q01DX005 (ip), vehicle: Klucel (hydroxypropylcellulose) (HPC) 104 % of control | dose: 240.0 mg/kg/injection, schedule: Q01DX005 (ip), vehicle: Klucel (hydroxypropylcellulose) (HPC) 86 % of control

CCOC1CC(=O)C2(C)C3CCC4(C)C(C(C)C5CC(C)=C(CO)C(=O)O5)CCC4C3CC3OC32C1O (stereo not given)
inactive: dose: 12.67 mg/kg/injection, schedule: Q01DX009 (ip), vehicle: saline + alcohol 101 % of control | dose: 25.35 mg/kg/injection, schedule: Q01DX009 (ip), vehicle: saline + alcohol 104 % of control | dose: 50.7 mg/kg/injection, schedule: Q01DX009 (ip), vehicle: saline + alcohol 92 % of control

CCCCC(=O)CCCCCCCCC(=O)OCC
inactive: dose: 100.0 mg/kg/injection, schedule: Q04DX003 (ip), vehicle: Klucel (hydroxypropylcellulose) (HPC) 102 % of control | dose: 200.0 mg/kg/injection, schedule: Q04DX003 (ip), vehicle: Klucel (hydroxypropylcellulose) (HPC) 103 % of control | dose: 400.0 mg/kg/injection, schedule: Q04DX003 (ip), vehicle: Klucel (hydroxypropylcellulose) (HPC) 95 % of control

COC(=N)CCCCC(=N)OC
inactive: dose: 50.0 mg/kg/injection, schedule: Q01DX005 (ip), vehicle: saline 92 % of control | dose: 100.0 mg/kg/injection, schedule: Q01DX005 (ip), vehicle: saline 97 % of control | dose: 200.0 mg/kg/injection, schedule: Q01DX005 (ip), vehicle: saline 101 % of control

CC(C)CC(C)(c1ccc(O)cc1)c1ccc(O)cc1
inactive: dose: 100.0 mg/kg/injection, schedule: Q01DX009 (ip), vehicle: saline with Tween-80 105 % of control | dose: 200.0 mg/kg/injection, schedule: Q01DX009 (ip), vehicle: saline with Tween-80 105 % of control

Source: PubChem BioAssay AID330 (DTP/NCI, 2004)
